Data taken from patent US20230013823A1, “INHIBITORS OF HUMAN IMMUNODEFICIENCY VIRUS REPLICATION” (VIV HEALTHCARE UK (No. 5) LIMITED, priority 2019, published 2023).

Tests used:
[1] = Compound cytotoxicity, XTT-based colorimetric assay; assay type: cell-based; conditions: human; uninfected MT2 cells, day 4, XTT
Protocol: Compound cytotoxicity and the corresponding CC50 values were determined using the same protocol as described in the antiviral assay except that uninfected cells were used. Cytotoxicity was assessed on day 4 in uninfected MT2 cells by using an XTT (2,3-bis[2-Methoxy-4-nitro-5-sulfophenyl]-2H-tetrazolium-5-carboxyanilide inner salt)-based colorimetric assay (Sigma-Aldrich, St Louis, Mo.).

[2] = test system: recombinant NL4-3 virus (Renilla luciferase in nef); test: HIV cell culture assay (antiviral activity, luciferase readout in MT-2 cells); assay type: cell-based; conditions: Renilla, NL43
Protocol: HIV cell culture assay—MT=2 cells, 293T cells and the proviral DNA clone of NL4-3 virus were obtained from the NIH AIDS Research and Reference Reagent Program. MT=2 cells were propagated in RPMI 1640 media supplemented with 10% heat inactivated fetal bovine serum (FBS), […] penicillin G and up to 100 units/mL streptomycin. The 293T cells were propagated in DMEM media supplemented with 10% heat inactivated FBS, […] penicillin G and […] streptomycin. A recombinant NL4-3 proviral clone, in which a section of the nef gene was replaced with the Renilla luciferase gene, was used to make the reference virus used in these studies. The recombinant virus was prepared through transfection of the recombinant NL4-3 proviral clone into 293T cells using Transit-293 Transfection Reagent from Mirus Bio LLC (Madison, Wis.). Supernatent was harvested after 2-3 days and the amount of virus present was titered in MT=2 cells using luciferase enzyme activity as a marker by measuring luciferase enzyme activity. Luciferase was quantitated using the EnduRen Live Cell Substrate from Promega (Madison, Wis.). Antiviral activities of compounds toward the recombinant virus were quantified by measuring luciferase activity in MT=2 cells infected for 4-5 days with the recombinant virus in the presence of serial dilutions of the compound.
The 50% effective concentration (EC50) was calculated by using the exponential form of the median effect equation where (Fa)=1/[1+(ED50/drug conc.)m] (Johnson V A, Byington R T. Infectivity Assay. In Techniques in HIV Research. ed. Aldovini A, Walker B D. 71-76. New York: Stockton Press. 1990). The 50% inhibitory concentration (EC50) was calculated by using the exponential form of the median effect equation where percent inhibition=1/[1+(EC50/drug concentration)m], where m is a parameter that reflects the slope of the concentration-response curve.

SMILES	CC50 at 4 days [1] [nM]	EC50 [2] [nM]
Cn1nc(NS(C)(=O)=O)c2c(Cl)ccc(-n3c([C@H](Cc4cc(F)cc(F)c4)NC(=O)Cn4nc(C(F)F)c5c4C(F)(F)[C@H]4C[C@H]54)nc4cc(-c5cnn(C(F)F)c5)ccc4c3=O)c21 (atropisomer, axis not shown; (P)) [Example 35, N—((S)-1-((3P)-3-(4-chloro-1-methyl-3-(methylsulfonamido)-1H-indazol-7-yl)-7-(1-(difluoromethyl)-1H-pyrazol-4-yl)-4-oxo-3,4-dihydroquinazolin-2-yl)-2-(3,5-difluorophenyl)ethyl)-2-((3bS,4aR)-3-(difluoromethyl)-5,5-difluoro-3b,4,4a,5-tetrahydro-1H-cyclopropa[3,4]cyclopenta[1,2-c]pyrazol-1-yl)acetamide]	> 100	0.092
Cn1nc(NS(C)(=O)=O)c2c(Cl)ccc(-n3c([C@H](Cc4cc(F)cc(F)c4)NC(=O)Cn4nc(C(F)F)c5c4C(F)(F)[C@@H]4C[C@H]54)nc4cc(-c5cncc(C(F)F)c5)ccc4c3=O)c21 (atropisomer, axis not shown; (P)) [Example 17, N—((S)-1-((3P)-3-(4-chloro-1-methyl-3-(methylsulfonamido)-1H-indazol-7-yl)-7-(5-(difluoromethyl)pyridin-3-yl)-4-oxo-3,4-dihydroquinazolin-2-yl)-2-(3,5-difluorophenyl)ethyl)-2-((3bS,4aR)-3-(difluoromethyl)-5,5-difluoro-3b,4,4a,5-tetrahydro-1H-cyclopropa[3,4]cyclopenta[1,2-c]pyrazol-1-yl)acetamide]	> 500	0.078
Cn1nc(NS(C)(=O)=O)c2c(Cl)ccc(-n3c([C@H](Cc4cc(F)cc(F)c4)NC(=O)Cn4nc(C(F)F)c5c4C(F)(F)[C@@H]4C[C@H]54)nc4cc(-c5ccn(CC(F)(F)C(F)(F)F)n5)ccc4c3=O)c21 (atropisomer, axis not shown; (P)) [Example 48, N—((S)-1-((3P)-3-(4-chloro-1-methyl-3-(methylsulfonamido)-1H-indazol-7-yl)-4-oxo-7-(1-(2,2,3,3,3-pentafluoropropyl)-1H-pyrazol-3-yl)-3,4-dihydroquinazolin-2-yl)-2-(3,5-difluorophenyl)ethyl)-2-((3bS,4aR)-3-(difluoromethyl)-5,5-difluoro-3b,4,4a,5-tetrahydro-1H-cyclopropa[3,4]cyclopenta[1,2-c]pyrazol-1-yl)acetamide]	> 100	0.091
Cn1nc(NS(C)(=O)=O)c2c(Cl)ccc(-n3c([C@H](Cc4cc(F)cc(F)c4)NC(=O)Cn4nc(C(F)F)c5c4C(F)(F)[C@@H]4C[C@H]54)nc4cc(-c5ncc(F)cn5)ccc4c3=O)c21 (atropisomer, axis not shown; (P)) [Example 24, N—((S)-1-((3P)-3-(4-chloro-1-methyl-3-(methylsulfonamido)-1H-indazol-7-yl)-7-(5-fluoropyrimidin-2-yl)-4-oxo-3,4-dihydroquinazolin-2-yl)-2-(3,5-difluorophenyl)ethyl)-2-((3bS,4aR)-3-(difluoromethyl)-5,5-difluoro-3b,4,4a,5-tetrahydro-1H-cyclopropa[3,4]cyclopenta[1,2-c]pyrazol-1-yl)acetamide]	> 100	0.045
Cn1nc(NS(C)(=O)=O)c2c(Cl)ccc(-n3c([C@H](Cc4cc(F)cc(F)c4)NC(=O)Cn4nc(C(F)F)c5c4C(F)(F)[C@@H]4C[C@H]54)nc4cc(-c5ccnc(C(F)F)n5)ccc4c3=O)c21 (atropisomer, axis not shown; (P)) [Example 56, N—((S)-1-((3P)-3-(4-chloro-1-methyl-3-(methylsulfonamido)-1H-indazol-7-yl)-7-(2-(difluoromethyl)pyrimidin-4-yl)-4-oxo-3,4-dihydroquinazolin-2-yl)-2-(3,5-difluorophenyl)ethyl)-2-((3bS,4aR)-3-(difluoromethyl)-5,5-difluoro-3b,4,4a,5-tetrahydro-1H-cyclopropa[3,4]cyclopenta[1,2-c]pyrazol-1-yl)acetamide]	> 100	0.017
